One substance from patent US20080076711A1, “Therapeutic agents for osteopenia” (Chugai Seiyaku Kabushiki Kaisha, priority 2001, published 2008) can be followed below.

This test concerns OPN knockout (OPN-KO) mice. Briefly: Determination of cortical bone thickness and area after PTH treatment, OPN-KO mice. Type of test: in vivo, mouse. As to conditions: PTH(+) group, 80 μg/kg s.c., 4 weeks, femoral mid-diaphysis. As to the method: Horizontal sections were prepared from the femoral mid-diaphysis and tomographed using an X-ray microtomograph Musashi (Nittetsu-ELEX, Osaka, Japan). A Luzex-F automated image analysis system (Nireco, Tokyo, Japan) was then used for analysis of the image data to determine the thickness and area of cortical bone. The thickness was evaluated at the mean value averaged over 8 measurements every 45°.
To create an animal model in which the in vivo effects of OPN were inhibited, strain 129 female mice at 7 weeks of age were modified into knockout mice deficient in the OPN gene (OPN-KO mice), as described in Rittling et al. J. Bone Miner. Res., 13: 1101-1111, 1998. These mice were singly used for PTH treatment test. They were divided into groups of 6 mice each.
Recombinant human PTH(1-34) (Bachem, Torrance, Calif.) was dissolved in acidified physiological saline supplemented with 0.1% bovine serum albumin (Sigma Chemical Co.-Aldrich, St. Louis, Mo.). The OPN-KO mice were subcutaneously administered with 80 μg/kg of body weight human PTH(1-34) for 4 weeks on a five-days-a-week basis. Mice in the control group were administered with physiological saline alone.

Turning to human PTH(1-34), the “area of cortical bone” value is 0.88±0.13 mm^2 and the “thickness of cortical bone” value came out at 0.26±0.04 mm.
